In US20170058314A1, “NOVEL METHODOLOGY FOR IDENTIFYING ANTI-PERSISTER ACTIVITY AND ANTIMICROBIAL SUSCEPTIBILITY FOR BORRELIA BURGDORFERI AND OTHER BACTERIA” (priority 2014, published 2017):
Marks after values point to notes of the source that are not given here.

Columns and labels:
[1] = tested on: log phase and stationary phase B. burgdorferi culture; test: Antibiotic exposure assay, SYBR Green I/PI (drugs alone and combinations); details: for Live cell %, ten day old stationary phase culture (in brackets): 10 μg/mL drugs or combinations; for viability at 10 µg/mL: Borreliella burgdorferi, 168 h, read-out: Live Cell % (residual viable B. burgdorferi), ten-day-old stationary phase culture enriched with micro-colonies, 10 μg/mL each drug, 7 days
Method: To qualitatively determine the effect of antibiotics, 10 μL of each compound from the pre-diluted plate or pre-diluted stock was added to stationary phase B. burgdorferi culture in the 96-well plate. The final volume per well was adjusted to 100 μL at a concentration of 10 μg/mL for each antibiotic. Plates were sealed and placed in a 33° C. incubator for 7 days. The SYBR Green I/PI viability assay was used to assess the live and dead cells after antibiotic exposure as described (Feng, Wang, Shi, et al., 2014). Briefly, 10 μL of SYBR Green I (10,000×stock, Invitrogen) was mixed with 30 μL propidium iodide (PI, 20 mM) into 1.0 mL of sterile dH2O. Then, 10 μL of staining mixture was added to each well and mixed thoroughly. The plates were incubated at room temperature in the dark for 15 minutes followed by plate reading at excitation wavelength at 485 nm and the fluorescence intensity at 535 nm (green emission) and 635 nm (red emission) in microplate reader (HTS 7000 plus Bio Assay Reader, PerkinElmer Inc., USA). With least-square fitting analysis, the regression equation and regression curve of the relationship between percentage of live bacteria and green/red fluorescence ratios was obtained. The regression equation was used to calculate the percentage of live cells in each well of the 96-well plate.
To qualitatively determine the effect of antibiotics, 10 μL of each compound (final concentration 50 μM) from the pre-diluted plate or pre-diluted stock was added to round body form or stationary phase B. burgdorferi culture in the 96-well plate. The final volume per well was adjusted to 100 μL. Plates were sealed and placed in a 33° C. incubator for 7 days. The SYBR Green I/PI viability assay was used to assess the live and dead cells after antibiotic exposure as described (Feng, Wang, Shi, et al., 2014). Briefly, 10 μL of SYBR Green I (10,000×stock, Invitrogen) was mixed with 30 μL propidium iodide (PI, 20 mM, Sigma-Aldrich) into 1.0 mL of sterile dH2O. Then, 10 μL staining mixture was added to each well and mixed thoroughly. The plates were incubated at room temperature in the dark for 15 minutes followed by plate reading at excitation wavelength at 485 nm and the fluorescence intensity at 535 nm (green emission) and 635 nm (red emission) in microplate reader (HTS 7000 plus Bio Assay Reader, PerkinElmer Inc., USA). With least-square fitting analysis, the regression equation and regression curve of the relationship between percentage of live and dead bacteria as shown in green/red fluorescence ratios was obtained. The regression equation was used to calculate the percentage of live cells in each well of the 96-well plate.
Round body form and ten day old stationary phase (in brackets) B. burgdorferi culture was treated with 10 μg/mL drugs or their combinations for 7 days. Residual viable B. burgdorferi was calculated according to the regression equation and ratio of Green/Red fluorescence obtained by SYBR Green I/PI assay as described (Feng, Wang, Shi, et al., 2014). Direct microscopy counting was employed to rectify the results of the SYBR Green I/PI assay. […] Abbreviation: Dox, doxcycline; CefP, cefoperazone; DAP, daptomycin; CefM, cefmetazole; Scp, sulfachlorpyridazine; Art, artemisinin; Nft, nitrofurantoin.

[2] = tested on: round body form of B. burgdorferi; test: SYBR Green I/PI assay on amoxicillin-induced round body form; details: for Live cell %, round body form: 10 μg/mL drugs or combinations; for viability at 50 µM: Borreliella burgdorferi, 168 h, read-out: Residual viable cells (SYBR Green I/PI assay)
[3] = tested on: stationary phase B. burgdorferi persisters (strain B31); test: SYBR Green I/PI viability assay (plate reader), FDA-approved drug library screen; details: for Ratio of Green/Red fluorescence, Primary screening / Ratio of Green/Red fluorescence, Rescreening (first column) / Ratio of Green/Red fluorescence, Rescreening (second column): 7 days, stationary phase; for viability at 50 µM: Borreliella burgdorferi, 168 h, read-out: Residual viable cells (regression equation, SYBR Green I/PI assay)
[4] = tested on: S. aureus strains (Newman, USA300, CA-409, CA-127, NY-315); test: Rapid SYBR Green/PI antibiotic susceptibility test; assay type: cell-based, Staphylococcus aureus
[5] = tested on: stationary phase B. burgdorferi persisters (strain B31); test: epifluorescence microscope counting after SYBR Green I/PI staining, FDA drug screen; details: for viability at 50 µM: Borreliella burgdorferi, 168 h, read-out: Residual viable cells (epifluorescence microscope counting)
[6] = 50 μM, 7-day old stationary phase cells treated for 7 days

| Molecule | Live cell %, ten day old stationary phase culture (in brackets) ([1]; 7 days) [%] | Live cell %, round body form ([2]; 7 days) [%] | Ratios of green/red fluorescence, Primary screening ([2]; round body form, 50 μM, 7 days) | Ratios of green/red fluorescence, Rescreening (first column) ([2]; round body form, 50 μM, 7 days) | Ratios of green/red fluorescence, Rescreening (second column) ([2]; round body form, 50 μM, 7 days) | Ratio of Green/Red fluorescence, Primary screening ([3]; 50 μM) | Ratio of Green/Red fluorescence, Rescreening (first column) ([3]; 50 μM) | Ratio of Green/Red fluorescence, Rescreening (second column) ([3]; 50 μM) | viability at 50 µM [3] [%] | further results |
| --- | --- | --- | --- | --- | --- | --- | --- | --- | --- | --- |
| CO[C@@]1(NC(=O)CSCC#N)C(=O)N2C(C(=O)O)=C(CSc3nnnn3C)CS[C@@H]21 [Cefmetazole] | 53 | 34 | 6.13 | 6.25 | 6.46 | 6.80 | 7.38 | 6.00 | 43 | viability at 50 µM [2]: 33% |
| CC[C@H]1OC(=O)[C@H](C)[C@@H](O[C@H]2C[C@@](C)(OC)[C@@H](O)[C@H](C)O2)[C@H](C)[C@@H](O[C@@H]2O[C@H](C)C[C@H](N(C)C)[C@H]2O)[C@](C)(O)C[C@@H](C)C(=O)[C@H](C)[C@@H](O)[C@]1(C)O [erythromycin] |  |  |  |  |  |  |  |  |  | cut-off (averaged proportion of killed cells) for resistant strains ([4]; 100 μg/mL, 1.5 hours): −0.1; cut-off (averaged proportion of killed cells) for susceptible strains ([4]; 100 μg/mL, 1.5 hours): −0.4; percent killed, resistant strain NY-315 ([4]; 30 minutes, kanamycin 25, erythromycin 400 μg/mL): 17%; percent killed, sensitive Newman strain ([4]; 30 minutes, kanamycin 25, erythromycin 400, ciprofloxacin 50, gentamicin 400 μg/mL): 50% |
| CC1(C)S[C@@H]2[C@H](NC(=O)Cc3ccccc3)C(=O)N2[C@H]1C(=O)O [Penicillin G] |  |  | 6.33 | 6.51 | 6.33 | 7.41 | 7.68 | 7.92 |  | Residual viable cells (SYBR Green I/PI assay) ([2]; round body form, 50 μM, 7 days): 38%; Residual viable cells (regression equation, SYBR Green I/PI assay) [3, 6]: 68%; Residual viable cells (epifluorescence microscope counting) [5, 6]: 75% |
| Nc1ccc(S(=O)(=O)Nc2ccc(Cl)nn2)cc1 [Scp, sulfachlorpyridazine] | 68 | 38 |  |  |  |  |  |  |  | residual viable / live cells, stated in text for stationary phase B. burgdorferi ([1]; drug combination test, refers to Table 6): about 38% |
| O=C1CN(/N=C/c2ccc([N+](=O)[O-])o2)C(=O)N1 [Nft, nitrofurantoin] | 82 | 33 |  |  |  |  |  |  |  |  |
| CC1(C)S[C@@H]2[C@H](NC(=O)C3(N)CCCCC3)C(=O)N2[C@H]1C(=O)O [Cyclacillin] |  |  |  |  |  | 6.81 | 6.88 | 7.64 | 53 | viability at 50 µM [5]: 51% |
| polymyxin B [Pmb] |  |  |  |  |  |  |  |  |  | Live Cell % (residual viable B. burgdorferi) ([1]; ten-day-old stationary phase culture enriched with micro-colonies, 10 μg/mL each drug, 7 days): 77% ^c |
| CO/N=C(\C(=O)N[C@@H]1C(=O)N2C(C(=O)O)=C(COC(N)=O)CS[C@H]12)c1ccco1 [Cefuroxime] |  |  | 6.29 | 6.28 | 6.31 | 6.59 | 6.84 | 6.67 | 43 | viability at 50 µM [2]: 34%; viability at 50 µM [5]: 49% |
| CO[C@H]1/C=C/O[C@@]2(C)Oc3c(C)c(O)c4c(O)c(c(/C=N/N5CCN(C)CC5)c(O)c4c3C2=O)NC(=O)/C(C)=C\C=C\[C@H](C)[C@H](O)[C@@H](C)[C@@H](O)[C@@H](C)[C@H](OC(C)=O)[C@@H]1C [Rif, rifampin] |  |  |  |  |  |  |  |  |  | viability at 10 µg/mL [1]: 82% |
| CC1COc2c(N3CCN(C)CC3)c(F)cc3c(=O)c(C(=O)O)cn1c23 (stereo not drawn) [Ofl, ofloxacin] |  |  |  |  |  |  |  |  |  | viability at 10 µg/mL [1]: 81% |
